Measured values from patent US20180161300A1, “CITRIN INHIBITORS FOR THE TREATMENT OF CANCER” (Yeda Research And Development Co. Ltd., priority 2015, published 2018).

Legend:
[1] = system: U2OS human osteosarcoma cell-line transduced with shASS1; test: Crystal violet proliferation, arginine deprivation combined with drug treatments; assay type: cell-based
Method: Cells were seeded in 12-well plates at 70,000 cells/well in a triplicate. Time 0 was calculated as the time the cells became adherent, which was after about 6 hours from plating. For each time point, cells were washed with PBS X1 and fixed in 4% PFA (in PBS). Cells were then stained with 0.1% Crystal Violet (Catalog #: C0775, Sigma-Aldrich) for 20 minutes (1 ml per well) and washed with water. Cells were then incubated with 10% acetic acid for 20 minutes with shaking. Extract was then diluted 1:4 in water and absorbance was measured at 590 nm every 24 hours.
U2OS human osteosarcoma cell-line was seeded in 6-well plates at 80,000 cells/well. The following day, cells were treated with either 100 nM Rapamycin (#R0395, Sigma-Aldrich) or with 10 μM 5FU (#F6627, Sigma-Aldrich) in regular medium, with 10% dialyzed FCS-arginine-free-RPMI (Catalogue No. 06-1104-34-1A, Biological Industries, Kibbutz beit-haemek, Israel), or with both arginine depleted medium and one of these drugs. Rapamycin and 5FU were renewed into the medium every day, whereas fresh arginine-free medium was supplemented twice a week.

Citrin [2] = biological target: T1, Citrin (Homo sapiens, UniProt Q9UJS0); test: Metabolomics analysis for potential citrin inhibitors (15N-alpha-glutamine labelling, GC-MS); assay type: cell-based; design: endogenous in cells; host or cells: U2OS osteosarcoma cells; settings: U2OS, 4 mM L-Glutamine (ALPHA-15N), compound 10-100 μM, 24 hours
T1 sequence (Q9UJS0 1-675): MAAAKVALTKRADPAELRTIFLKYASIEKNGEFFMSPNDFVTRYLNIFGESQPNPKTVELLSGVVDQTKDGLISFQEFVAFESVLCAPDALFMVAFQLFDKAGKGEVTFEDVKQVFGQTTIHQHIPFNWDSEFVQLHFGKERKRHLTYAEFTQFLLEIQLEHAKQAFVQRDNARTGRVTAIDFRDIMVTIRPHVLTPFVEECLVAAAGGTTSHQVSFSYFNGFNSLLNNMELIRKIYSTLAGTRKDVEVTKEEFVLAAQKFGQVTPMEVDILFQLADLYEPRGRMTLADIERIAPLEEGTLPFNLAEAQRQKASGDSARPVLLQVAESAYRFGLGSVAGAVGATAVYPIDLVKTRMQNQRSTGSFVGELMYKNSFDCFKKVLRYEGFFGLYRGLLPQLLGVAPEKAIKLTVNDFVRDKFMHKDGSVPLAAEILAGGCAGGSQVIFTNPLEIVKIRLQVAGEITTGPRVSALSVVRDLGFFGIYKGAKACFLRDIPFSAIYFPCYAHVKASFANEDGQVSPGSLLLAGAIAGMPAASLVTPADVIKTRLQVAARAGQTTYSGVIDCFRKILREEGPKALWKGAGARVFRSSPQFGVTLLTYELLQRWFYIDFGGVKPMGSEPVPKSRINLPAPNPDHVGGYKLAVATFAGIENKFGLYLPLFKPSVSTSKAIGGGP
Method: Osteosarcoma cell line (U2OS) were seeded at 1.5 to 2×10^6 cells per 10 cm plate. The next day (60% confluence) the cells were incubated with 4 mM of L-Glutamine (ALPHA-15N, 98%; Cat. Number: NLM-1016-1; Cambridge Isotope Laboratories) in the presence of either control (medium only) or one of compounds 1, 2, or 3 (at a concentration range between 10-100 μM), for 24 hours. Compound “1”=D-Glutamic acid; compound “2”=L-glutamic acid-5-methyl ester; “compound “3”=L-glutamic acid-gamma-benzyl ester. Compounds 1-3 are commercially available and were bought from Sigma Aldrich. Subsequently, cells were washed with ice-cold saline, lysed with 50% methanol in water and quickly scraped followed by three freeze-thaw cycles in liquid nitrogen. The insoluble material was pelleted in a cooled centrifuge (4° C.) and the supernatant was collected for consequent GC-MS analysis. Samples were dried under air flow at 42° C. using a Techne Dry-Block Heater with sample concentrator (Bibby Scientific) and the dried samples were treated with 40 μl of a methoxyamine hydrochloride solution (20 mg ml^−1 in pyridine) at 37° C. for 90 minutes while shaking followed by incubation with 70 μl N,O-bis (trimethylsilyl) trifluoroacetamide (Sigma) at 37° C. for an additional 30 minutes.
GC-MS analysis used a gas chromatograph (7820AN, Agilent Technologies) interfaced with a mass spectrometer (5975 Agilent Technologies). An HP-5 ms capillary column 30 m×250 μm×0.25μm (19091S-433, Agilent Technologies) was used. Helium carrier gas was maintained at a constant flow rate of 1.0 ml min −1. The GC column temperature was programmed from 70 to 150° C. via a ramp of 4° C. min −1, […] via a ramp of 9° C. min −1, 215-300° C. via a ramp of 25° C. min −1 and maintained at 300° C. for an additional 5 minutes. The MS was by electron impact ionization and operated in full-scan mode from m/z=30-500. The inlet and MS transfer line temperatures were maintained at 280° C., and the ion source temperature was 250° C. Sample injection (1 μl) was in splitless mode.
Specifically, Aspartate at a mass of M+1 is a metabolite that comes out of the mitochondria via Citrin.

Citrin [3] = test: Western blot of citrin protein after shCitrin; assay type: cell-based, human; settings: MDA-MB-435, Dox induction
Method: Cells were lysed in RIPA (Sigma-Aldrich) and 0.5% protease inhibitor cocktail (Calbiochem). After centrifugation, the supernatant was collected and protein content was evaluated by the Bradford assay. One hundred micrograms from each sample under reducing conditions were loaded into each lane and separated by electrophoresis on a 10% SDS polyacrylamide gel. After electrophoresis, proteins were transferred to Immobilon transfer membranes (Tamar). Non-specific binding was blocked by incubation with TBST (10 mM Tris-HCl (pH 8.0), 150 mM NaCl, 0.1% Tween 20), containing 3% albumin from bovine serum for 1 hour at 25° C. Membranes were subsequently incubated with antibodies against Citrin (1:200, H00010165-M01, Abnova), ASS1 (1:500, sc-99178, Santa Cruz Biotechnology) and p97 (1:10,000, PA5-22257, Thermo Scientific). Antibody was detected using peroxidase-conjugated AffiniPure goat anti-rabbit IgG or goat anti-mouse IgG (Jackson ImmunoResearch) and enhanced chemiluminescence Western blotting detection reagents (EZ-Gel, Biological Industries). Gels were quantified by Gel Doc XR+(BioRad) and analysed by ImageLab 4.1 software (BioRad). The band area was calculated by the intensity of the band. The obtained value was then divided by the value obtained from the loading control. […]

Citrin [4] = biological target: T1, Citrin; settings: at 1 about mM; cited from earlier work

## O=c1[nH]cc(F)c(=O)[nH]1 [5FU, Fluorouracil]
[1]; U2OS shASS1, arginine depleted medium plus 100 nM Rapamycin or 10 μM 5FU
  proliferation, drug together with arginine depleted medium: significant additive beneficial effect
[1]; U2OS shASS1, complete medium, 100 nM Rapamycin or 10 μM 5FU
  proliferation, isolated drug treatment: more beneficial than Rapamycin

## COC(=O)CC[C@H](N)C(=O)O [Compound 2, L-glutamic acid-5-methyl ester]
Citrin [2]
  Uracil M+1 inhibition (in words): inhibited

## N[C@H](CCC(=O)O)C(=O)O [Compound 1, D-Glutamic acid]
Citrin [2]
  Uracil M+1 inhibition (in words): inhibited

## 5′-TTAAGAAAGTGCTACGCTA-3′ (expressed or natural sequence) [sh901]
Citrin [3]
  citrin protein production (Western blot): no production of citrin

## 5′-GTATCCTATCGATCTTGTA-3′ (expressed or natural sequence) [sh909]
Citrin [3]
  citrin protein production (Western blot): no production of citrin

## CCN1C(=O)C=CC1=O [N-ethylmaleimid]
Citrin [4]
  inhibition of citrin in vitro: about 50%

## N[C@@H](CCC(=O)OCc1ccccc1)C(=O)O [Compound 3, L-glutamic acid-gamma-benzyl ester]
Citrin [2]
  Aspartate M+1 relative to control: inhibited
  Uracil M+1 inhibition: ~35%
